Entries after “also recorded” stand apart in the source; their conditions may differ.
Assays:
[1] = tested on: cardiac function after TAC in mice; assay: Echocardiography of cardiac function 21 days post TAC (Example 8); type: in vivo
Protocol: (§1) Masson's Trichrome was used to visualize cardiac four-chamber anatomy. Paraffin embedded sections were used for staining (FIG. 5B). Representative wheat germ agglutinin (WGA)-stained sections of myocardium from the mice were prepared. For echocardiography (FIG. 5C), mice were placed under anesthesia with 40 mg/kg ketamine and 5 mg/kg xylocaine and secured in a supine position. Mice were evaluated using […] transducer on a Visual Sonics 770 High Resolution Imaging System. B-mode in the short and long axis view of the ventricle was used to evaluate wall motion defects of ventricle and M-mode in long axis view used for the interventricular septal thickness, posterior wall thickness and the left ventricular dimensions in systole and diastole.
Echocardiographic studies were performed on the mice to examine systolic function under the experimental conditions described in Example 4. […] As expected, TAC induced a 37% fall in ejection fraction at 21 days (sham, 82.4±1.8% vs. TAC, 51.7±5.1%) (FIG. 8A). […] The mice maintained a near-normal ejection fraction of 75.4% at the highest dose of 8MI (FIG. 8A). […] LV end diastolic diameter (LViDd) (FIG. 8D), LV end-systolic diameter (LViDs) (FIG. 8E), LV systolic volume (LV Vs) (FIG. 8F), and LV diastolic volume (LV Vd) (FIG. 8G) were increased by TAC and diminished in the presence of 8MI. […] Heart rate was unaffected in all mice (FIG. 8H).

[2] = tested on: cardiac hypertrophy induced by TAC in C57/BL/6 mice; assay: TAC 21 days: cardiac mass, geometry, wall thickness, myocyte size (Example 4); type: in vivo; settings: 21 days after TAC
Protocol: The effects of 8MI on hypertrophy in a model of moderate pressure overload were tested further (FIGS. 5A-5E). 8MI or its vehicle (DMSO) was administered over a range of concentrations immediately prior to and for 21 days following transverse aortic coarctation (TAC). All experiments were performed on 2-3 month old wild type C57/BL/6 mice. Cardiac hypertrophy was induced by TAC as described in Wei et. al. 2008. Pressure gradients induced by TAC were evaluated postoperatively by pulsed-wave Doppler echocardiography to confirm equivalent gradients in all animals (45±5 mmHg). 8MI was delivered via tail vein injection one day prior to surgical intervention and then daily for 21 days. Blood samples were obtained at sacrifice on day 21 after surgery, and serum was frozen at […] until analysis
as §1
Hematoxylin and Eosin (HE) and FITC conjugated WGA (from Invitrogen) were used to evaluate myocardial cell size (FIGS. 5D and 5E). The sizes of cells from at least 4 myocardial sections from 3 mice per condition were measured (FIG. 5E). WGA samples were counterstained with DAPI and images were merged from the DAPI and FITC channels.

[3] = Metabolic stability in human liver microsomes fortified with NADPH (Example 11); type: in vitro ADME; parameters: CLint scaled: dose or concentration left out as unconfirmed
Excerpt: Drug clearance is a measure of the ability of the body or an organ to eliminate a drug from the blood circulation. Systemic clearance is a measure of the ability of the entire body to eliminate the drug. Organ clearance is a measure of the ability of a particular organ (hepatic or renal) to eliminate the drug. For hepatic clearance, the liver is the major organ for drug metabolism and the key organ for drug clearance. Human liver microsomes (HLM) fortified with NADPH is a standard way to measure in vitro metabolism and predict in vivo clearance. CLint (intrinsic clearance) is the link between in vitro and in vivo studies, which can be estimated based on the mono-exponential decay model: Ct=C X e^−kt.
Human liver microsomes fortified with NADPH is a standard approach to evaluate metabolic stability mediated by CYP (cytochrome P450) enzymes in vitro. The reaction mixture (0.4 mL) contained 0.5 mg/mL human liver microsomes, 100 mM phosphate buffer (pH 7.4) and […] of test compounds. The mixture was first warmed up for 5 min in a 37° C. shaking water bath and then NADPH at a final concentration of 1 mM was added to initiate the reaction. Aliquots […] were taken at specified time points and mixed with ice-cold methanol (containing internal standard) to stop the reaction. The mixture was vortexed briefly and centrifuged for protein precipitation. An aliquot of […] supernatant was subject to LC-MS/MS analysis. The percentage of compound disappearance was used to calculate the rate of metabolism.

[4] = tested on: myocyte apoptosis during TAC; assay: Myocyte apoptosis in myocardial tissue after TAC, TUNEL assay (Example 10); type: in vivo, mice
Excerpt: In parallel samples from the experiment described in Example 4, apoptosis was quantitated in myocardial tissue from sham- and TAC-operated mice in the presence of vehicle or 8MI. Apoptosis was detected following recommended protocol for the commercially available terminal deoxynucleotidyl transferase-mediated dUTP nick-end labeling (TUNEL) assay kit (Cardiotacs, Trevigne, Gaithersburg, Md.).

[5] = tested on: Neonatal Rat Ventricular Myocytes (NRVMs); assay: Serum (FBS)-induced hypertrophy of Neonatal Rat Ventricular Myocytes in vitro; type: cell-based
Protocol: The cells were also treated with DMSO (light gray bars) or a vehicle (dark gray bars) as a negative control. The order of potency for inhibitors was DMSO<7MI<TSA<8MI. Viability was unchanged (not shown).
Next, the ability of 7MI and 8MI to inhibit hypertrophy in vitro was tested (FIG. 2A). […] However, fetal calf serum, which contained a rich variety of growth factors, was chosen as the most robust and multifactorial stimulus for cardiomyocyte growth available, reasoning that a similarly robust and powerful inhibitor would be required to block this hypertrophy.

[6] = 21 days post TAC, depressed by TAC
[7] = 21 days post TAC, increased by TAC

Which results are given for `Nc1ccccc1NC(=O)CCCCCC(=O)Nc1cccc(Br)c1` [8MI]?
systolic function / cardiac function under sustained pressure overload ([1]; 21 days post TAC, 5, 20 and 40 mg/kg, dose-dependent): preserved systolic function; also recorded: preservation of cardiac function; ejection fraction ([1]; 21 days post TAC, highest dose of 8MI (sham 82.4±1.8%, TAC 51.7±5.1%)): 75.4%; fractional shortening (FS) [1, 6]: similarly restored; stroke volume [1, 6]: similarly restored; LV end diastolic diameter (LViDd) [1, 7]: diminished; LV end-systolic diameter (LViDs) [1, 7]: diminished; LV systolic volume (LV Vs) [1, 7]: diminished; heart rate ([1]; all mice, 21 days): unaffected; cardiac function in sham-operated mice ([1]; sham-operated mice treated with 8MI): normal cardiac function; effect on heart weight in comparison to previously published results for TSA [2]: significantly superior effect; reduction of myocyte cross sectional area in comparison to previously published results for TSA [2]: significantly superior effect; HW/TL at the highest dose ([2]; 40 mg/kg): normal levels; TAC-induced increase of myocyte cross-sectional area / myocyte size ([2]; WGA-stained sections): effectively eliminated this 2.2-fold increase; also recorded: normalization of myocyte size; remodeling of the myocardium (four-chamber sections) ([2]; dose-dependent): prevented remodeling of the myocardium; also recorded: normalization of cardiac geometry; increase of echocardiographic wall thickness ([2]; highest dose of 8MI (vehicle 35.9%±1.0%)): 6.9%±1.4%; echocardiographic posterior wall thickness ([2]; indicated doses): normalization of echocardiographic posterior wall thickness; TAC-induced increase of heart weight (HW/TL) ([2]; indicated doses up to 40 mg/kg, tail vein daily): blunted the increase of heart weight in a dose-dependent manner; also recorded: normalization of cardiac mass; K (rate constant) ([3]; 0.5 mg/mL human liver microsomes, 1 mM NADPH, pH 7.4, 37° C.): 0.0046 min⁻¹; Clhp (hepatic clearance) ([3]; human liver microsomes): 3.85 mL/min/kg; CLint scaled ([3]; pH 7.4, human liver microsomes, from mono-exponential decay model, read-out: Clint (intrinsic clearance)): 4.73 mL/min/kg; apoptosis in TAC-operated mice at the highest dose ([4]; 40 mg/kg): reduced to approximately the same level of apoptosis observed for the sham-operated mice; apoptosis in TAC-operated mice ([4]; dose range): reduced in TAC-operated mice by 8MI in a dose-dependent manner; also recorded: prevented myocyte apoptosis during TAC in a dose dependent manner; viability ([5]; NRVMs (not shown)): unchanged; order of potency for inhibitors ([5]; NRVMs, FBS-induced growth): most potent inhibitor; also recorded: DMSO<7MI<TSA<8MI; growth response to Fetal Bovine Serum / serum-stimulated myocyte growth (hypertrophy) ([5]; NRVMs, pre-treatment with a range of doses): sufficient to block myocyte hypertrophy; also recorded: depressed growth response

Reference: US20180028477A1, “TREATMENT OF CARDIAC REMODELING AND OTHER HEART CONDITIONS” (C & C BIOPHARMA, LLC, priority 2013, published 2018)
